Measurements from the CheMixHub viscosity set.

Assay: xn = mol fraction of the nth substance listed

CCC(C)Br (stereo not given) + CCC(C)O
viscosity [mPa·s], 101.3 kPa
Details	x1 = 0.0514	x1 = 0.1041	x1 = 0.2027	x1 = 0.2985	x1 = 0.4321	x1 = 0.5027	x1 = 0.5839	x1 = 0.702	x1 = 0.8019	x1 = 0.9029
298.15 K	2.434	1.986	1.435	1.135	0.8991	0.8084	0.7285	0.6459	0.5996	0.5667
313.15 K	1.495	1.276	1.006	0.8366	0.6849	0.6292	0.5794	0.5282	0.4961	0.4774

CCNc1ccccc1 + CCC(C)O
viscosity [mPa·s], 101 kPa
Details	303.15 K	308.15 K
x1 = 0.0785	2.682	2.105
x1 = 0.1325	2.642	2.089
x1 = 0.1965	2.596	2.071
x1 = 0.2564	2.55	2.052
x1 = 0.3214	2.498	2.028
x1 = 0.3965	2.433	1.995
x1 = 0.4562	2.378	1.964
x1 = 0.5124	2.322	1.932
x1 = 0.5895	2.24	1.882
x1 = 0.6547	2.164	1.835
x1 = 0.7325	2.07	1.773
x1 = 0.8025	1.983	1.714
x1 = 0.8745	1.894	1.653

CCOC=O + CCCC(C)O
viscosity [mPa·s], 100 kPa
Details	x1 = 0.0826	x1 = 0.1603	x1 = 0.2396	x1 = 0.3504	x1 = 0.4402	x1 = 0.5595	x1 = 0.6497	x1 = 0.74	x1 = 0.8501	x1 = 0.9381
293.15 K	2.84	2.16	1.73	1.34	1.12	0.91	0.78	0.65	0.52	0.45
298.15 K	2.5	1.96	1.57	1.23	1.02	0.85	0.73	0.6	0.49	0.43
303.15 K	2.2	1.74	1.4	1.11	0.93	0.77	0.67	0.57	0.46	0.41
308.15 K	1.9	1.53	1.23	0.98	0.84	0.7	0.6	0.52	0.43	0.39
313.15 K	1.6	1.3	1.05	0.86	0.75	0.63	0.54	0.46	0.4	0.36
318.15 K	1.32	1.06	0.89	0.73	0.64	0.54	0.47	0.41	0.36	0.33
323.15 K	1.06	0.84	0.7	0.59	0.53	0.45	0.4	0.36	0.33	0.31

ClCCl + CCCCC
298.15 K, 101 kPa
Details	viscosity [mPa·s]
x2 = 0.05	0.403
x2 = 0.1	0.384
x2 = 0.1023	0.379
x2 = 0.15	0.366
x2 = 0.1992	0.345
x2 = 0.2	0.348
x2 = 0.25	0.332
x2 = 0.3	0.317
x2 = 0.3043	0.314
x2 = 0.35	0.303
x2 = 0.4	0.29
x2 = 0.4032	0.29
x2 = 0.45	0.28
x2 = 0.5	0.27
x2 = 0.5097	0.269
x2 = 0.55	0.262
x2 = 0.6	0.255
x2 = 0.603	0.254
x2 = 0.65	0.248
x2 = 0.6984	0.242
x2 = 0.7	0.242
x2 = 0.75	0.237
x2 = 0.7991	0.231
x2 = 0.8	0.232
x2 = 0.85	0.227
x2 = 0.8858	0.224
x2 = 0.9	0.222
x2 = 0.9189	0.221
x2 = 0.95	0.218

ClCCl + CCCCCC
298 K, 101 kPa
Details	viscosity [mPa·s]
x2 = 0.1331	0.386
x2 = 0.2381	0.367
x2 = 0.3208	0.354
x2 = 0.3873	0.346
x2 = 0.4407	0.34
x2 = 0.4419	0.34
x2 = 0.4746	0.335
x2 = 0.4862	0.335
x2 = 0.5144	0.333
x2 = 0.5244	0.332
x2 = 0.5599	0.329
x2 = 0.6138	0.324
x2 = 0.6791	0.32
x2 = 0.7601	0.314
x2 = 0.8633	0.308
